The values below come from patent publication US20050159481A1, “Medicinal composition for improving angiotension-regulating function of blood vessel endothelium” (CHUGAI SEIYAKU KABUSHIKI KAISHA, priority 2002, published 2005).

This test deals with rat mesenteric artery sections damaged by oxidized LDL. The test is described as follows: Vascular endothelium-dependent relaxation response to acetylcholine in rat vessel cross-sections damaged by oxidized LDL. It counts as cell-based. The note with it: for ACh concentration at which the relaxation degree of 50% was achieved: 30 min perfusion, then oxidized LDL 100 μg/mL for 60 min, sections contracted with 5 μM phenylephrine. The procedure:
The ability of a compound of the present invention to ameliorate the vascular tone-regulating function of vascular endothelium was evaluated by assaying vascular endothelium-dependent relaxation response to acetylcholine in the presence of a compound of the present invention using cross-section samples of rat vessels damaged by oxidized low-density lipoprotein (oxidized LDL).
Oxidized LDL is a substance derived from an endogenous low-density lipoprotein (LDL) via a exposure to a oxidative stress, and has been reported to be involved in the mechanism by which vascular endothelial cells are damaged (Tanner F C, Noll G, Boulanger C M, Luscher T F, Oxidized low density lipoproteins inhibit relaxations of porcine coronary arteries. Role of scavenger receptor and endothelium-derived nitric oxide. Circulation. 1991, 83:2012-20). The oxidized LDL used in this test was prepared by incubating rabbit LDL suspended at 200 μg/mL in phosphate buffered physiological saline (PBS) prepared by the method of Havel et al. (Havel R. J. et al., J. Clin. Invest., 34, 1345 (1955)) with 5 μM CuSO4 at 37° C. for 24 hours.
First, the mesenteric artery was collected from a rat euthanized by carbon dioxide inhalation into Krebs buffer (containing 118.0 mM NaCl, 4.7 mM KCl, 25.0 mM NaCO3, […] CaCl, 1.5 mM MgSO4 and 10 mM glucose), and the artery was cut into 2 mm wide annular cross sections. Then, the sections were suspended in a Magnus bath where they were equilibrated under a tension of 3 mN for 60 minutes. After equilibration, the sections were contracted with a 5 μM phenylephrine solution in Krebs buffer.
After confirming that a stable contraction was achieved, the perfusion solution was replaced with Krebs buffer containing 20 μM each of test compounds. The test compounds were the compound of the present invention, 4,6-di-t-butyl-5-hydroxy-2,2-di-n-pentyl-2,3-dihydrobenzofuran, and comparative compounds, probucol and α-tocopherol. Probucol is a compound reported to ameliorate the vascular tone-regulating function of vascular endothelium by preventing the decrease of the EDRF-secreting ability of vascular endothelial cells. α-tocopherol is a fat-soluble endogenous antioxidant known to inhibit the oxidation of LDL.
After perfusion for 30 minutes, oxidized LDL was added to a concentration of 100 μg/mL. After equilibration in the perfusion solution containing oxidized LDL for 60 minutes, acetylcholine (ACh) was cumulatively added at concentrations from 1×10^−10 M to 1×10^−5 M. At equally spaced ACh concentrations, the length of each section was measured to calculate the degree of relaxation (%) by dividing the difference between the lengths of the section before and after relaxation by the length before relaxation. This relaxation is a phenomenon resulting from the acetylcholine-induced secretion of EDRF from vascular endothelial cells.
In addition to the experiment described above, a similar experiment was performed except that the perfusion in Krebs buffer containing test compounds and the equilibration with oxidized LDL were omitted (control experiment) or except that the perfusion in Krebs buffer containing test compounds was omitted but the equilibration with oxidized LDL was included (oxidized LDL experiment).
The procedure of test example 1 was followed except that the concentration of the test compound was increased from 20 μM to 50 μM.

The mark [1] stands for this setting: 20 μM test compound, compared with the oxidized LDL experiment, FIG. 1.

Take `CC(C)(Sc1cc(C(C)(C)C)c(O)c(C(C)(C)C)c1)Sc1cc(C(C)(C)C)c(O)c(C(C)(C)C)c1` [probucol]: the “ACh concentration at which the relaxation degree of 50% was achieved” value (“ACh concentration … of 50% was achieved” for short) (20 μM test compound, FIG. 1) was found to be 121 nM.
Regarding `Cc1c(C)c2c(c(C)c1O)CC[C@@](C)(CCC[C@H](C)CCC[C@H](C)CCCC(C)C)O2` [α-tocopherol], where the note is “20 μM test compound, FIG. 1”, the “ACh concentration … of 50% was achieved” value was found to be 261 nM. For the same compound, under setting [1], the “Ameliorating effect on the vascular tone-regulating function of vascular endothelium damaged by oxidized LDL” value is reported as “does not ameliorate the vascular tone-regulating function of vascular endothelium”.
Consider `CCCCCC1(CCCCC)Cc2c(cc(C(C)(C)C)c(O)c2C(C)(C)C)O1` [compound of the present invention, 4,6-di-t-butyl-5-hydroxy-2,2-di-n-pentyl-2,3-dihydrobenzofuran], for which the “ACh concentration … of 50% was achieved” value (20 μM test compound, FIG. 1) was found to be 126 nM. For the same compound, the “Ameliorating effect on the vascular tone-regulating function of vascular endothelium damaged by oxidized LDL” value runs as follows: under setting [1], “ameliorated the vascular tone-regulating function of vascular endothelium”; (50 μM test compound, compared with the control, FIG. 2) “adverse influence of oxidized LDL-induced damages to vascular endothelial cells on the vascular tone-regulating function was completely removed”.
